Legend:
HCT-116 [1] = test: Cytotoxicity against human HCT-116 cells assessed as cell viability at 10 uM relative to control; format: functional; details: read-out: Activity
HCT-116 [2] = test: Cytotoxicity against human HCT-116 cells assessed as cell viability at 1 uM relative to control; format: functional; details: read-out: Activity
HL-60 [3] = test: Cytotoxicity against human HL-60 cells assessed as cell viability at 10 uM relative to control; format: functional; details: read-out: Activity
HL-60 [4] = test: Cytotoxicity against human HL-60 cells assessed as cell viability at 1 uM relative to control; format: functional; details: read-out: Activity
HCT-116 [5] = test: Cytotoxicity against human HCT-116 cells assessed as reduction in cell viability; format: functional, cell-based
HL-60 [6] = test: Cytotoxicity against human HL-60 cells assessed as reduction in cell viability; format: functional, cell-based
HCT-116 [7] = test: Growth inhibition of human HCT-116 cells at 1 uM relative to control; format: functional; set-up: scale not given: the % may be the effect or the level left
[8] = Homo sapiens, HL-60, read-out: IC50

Row | Compound | viability at 10 µM (HCT-116 [1]) [%] | viability at 1 µM (HCT-116 [2]) [%] | viability at 10 µM (HL-60 [3]) [%] | viability at 1 µM (HL-60 [4]) [%] | IC50 (HCT-116 [5]) [nM] | IC50 (HL-60 [6]; [8]) [nM] | Activity (HCT-116 [7]) [%] | IC50 (HL-60 [6]; hl-60) [nM]
1 | O=C1C=C2C(I)=C[C@@H]3C[C@]2(CN3Cc2ccccc2)O1 | 1 | 5 | 0 | 4 | 60 | 350 | 80.9 | 
2 | O=C1C=C2C=C[C@@H]3C[C@@]2(O1)[C@H]1CCCCN31 [SECURININE] | 13 | 98 | 0.4 | 8 | 8600 | 100 |  | 
3 | CC(C)CN1C[C@]23C[C@H]1C=CC2=CC(=O)O3 | 78 | 83 | 1 | 15 |  |  |  | 
4 | COc1cccc2c1C(=O)c1c(O)c3c(c(O)c1C2=O)C[C@@](O)(C(=O)CO)C[C@@H]3O[C@H]1C[C@H](N)[C@H](O)[C@H](C)O1 [DOXORUBICIN] |  |  |  |  | 10 |  |  | 90
5 | O=C1C=C2C=C[C@@H]3C[C@]2(CN3Cc2ccccc2)O1 | 86 | 100 | 3 | 11 |  | 100 |  | 
